Experimental data published in patent publication US6569850B1, “Treatment of multiple sclerosis (MS) and other demyelinating conditions using lofepramine in combination with L-phenylalanine, tyrosine or tyrptophan and possibly a vitamin B12 compound” (priority 1994, dated 2003).
Entries after “also recorded” stand apart in the source; their conditions may differ.

Test: Treatment of patients with Multiple Sclerosis (case histories and patient series)
Type: in vivo, human
Details: for Contribution of the component to the therapeutic effect in MS: added to the antidepressant regime
Experimental: Over 100 other patients have done well on a similar regime, although some have been given other antidepressants either of the traditional tricyclic class, such as amitriptyline or imipramine, or the newer specialist serotonin uptake inhibitors or monoamine oxidase inhibitors. Four particular instances are given in the appendix. […] The doses of LPA have also varied from about 100 mg to up to 5 g per day, but best results are obtained with doses in the region of 500-2000 mg/day. The doses of antidepressants (with the proviso that minimum effective and maximum safe levels are determined according to the drug), lie broadly in the range 10 mg to 200 mg per day.
A specific example of the use of the treatment is 70 mgs (half the therapeutic starting dose for depression) of lofepramine taken each morning with 500 mgs of L-phenylalanine, and 500 mgs of L-phenylalanine taken mid afternoon. For patients with the regular MS attacks of chronic progressive MS it is desirable to include an 8-10 week course of 1000 micrograms of hydroxocobalamin (intra muscular) per week at the start of treatment and then 1000 micrograms every ten days thereafter.

Row | Compound | Contribution of the component to the therapeutic effect in MS | Comparative therapeutic result among antidepressants in MS treatment (antidepressant combined with neurotransmitter precursor)
1 | N[C@@H](Cc1ccccc1)C(=O)O [L-phenylalanine (LPA), L-phenylalanine] | contributes to the therapeutic effect | 
2 | vitamin B12 | does have a beneficial effect; also recorded: the treatment works best | 
3 | CN(CCCN1c2ccccc2CCc2ccccc21)CC(=O)c1ccc(Cl)cc1 [lofepramine] |  | best results; also recorded: Most have done best
